According to patent publication US10813933B2, “Therapeutic agent for lung cancer that has acquired EGFR-TKI resistance” (JAPANESE FOUNDATION FOR CANCER RESEARCH, priority 2016, dated 2020):
Values joined by “and” are separate entries in the source; they are usually repeats but may differ in a detail not shown here. Equal entries are not always repeated. Where two headings read alike, the source gives them in different places.

What was measured:
[1] = molecular target: EGFR T790M/exon 19 deletion mutant (T790M/del19) expressing Ba/F3 cells (Homo sapiens, UniProt P00533, DEL746-750/T790M, cells depend on it); assay: CellTiter-Glo cell viability, Ba/F3 EGFR mutant
[2] = system: EGFR signal transductions in EGFR mutants expressing Ba/F3 cells; assay: Western blotting of EGFR signal transductions in EGFR mutants expressing Ba/F3 cells (summary statements); assay type: cell-based, mouse; conditions: FIG. 8A-D; L858R-based lines, not shown
[3] = molecular target: EGFR L858R mutant expressing Ba/F3 cells (Homo sapiens, UniProt P00533, L858R, cells depend on it); assay: CellTiter-Glo cell viability, Ba/F3 EGFR mutant; assay type: cell-based, mouse; conditions: read-out: IC50 (nM) L858R
Description: (§1) Ba/F3 mutation lines were prepared in the same manner as above to determine the cell viabilities by CellTiter-Glo assay.

[4] = system: EGFR mutant expressing Ba/F3 cells; assay: Cell viability, ALK inhibitors on Ba/F3 with any of the EGFR mutants (summary statements); assay type: cell-based, mouse; conditions: FIG. 6A-D, FIG. 7A-D
[5] = molecular target: EGFR exon 19 deletion mutant (del19) expressing Ba/F3 cells (Homo sapiens, UniProt P00533, DEL746-750, cells depend on it); assay: CellTiter-Glo cell viability, Ba/F3 EGFR mutant
[6] = molecular target: EGFR T790M/L858R mutant expressing Ba/F3 cells (Homo sapiens, UniProt P00533, T790M/L858R, cells depend on it); assay: CellTiter-Glo cell viability, Ba/F3 EGFR mutant; assay type: cell-based, mouse; conditions: Table 5, ALK inhibitors, read-out: IC50 (nM) T/L
Description: as §1

[7] = system: exon 19 deletion mutation; conditions: cited from earlier work
[8] = system: phosphorylation of EGFR and downstream signal transductions in T790M/exon 19 deletion mutant expressing PC9 cell line; assay: Western blotting of EGFR signal, PC9 T790M; assay type: cell-based, human; conditions: FIG. 10B, 10D
[9] = system: phosphorylation of EGFR and downstream signal transductions in triple-mutant expressing PC9 cell line; assay: Western blotting of EGFR signal, PC9 triple-mutant; assay type: cell-based, human; conditions: FIG. 10C, 10D
[10] = system: phosphorylation of EGFR and downstream signal transductions in parental line PC9; assay: Western blotting of EGFR signal, PC9; assay type: cell-based, human; conditions: FIG. 10A, 10D
[11] = system: phosphorylation of EGFR and downstream signal transductions in T790M/del19 Ba/F3 cells; assay: Western blotting of EGFR phosphorylation and downstream signal; assay type: cell-based, mouse; conditions: 10, 100, 1000 nM; FIG. 2E
[12] = system: human lung cancer cell line PC9 (EGFR exon 19 deletion mutant); assay type: cell-based
[13] = system: T790M/exon 19 deletion mutant expressing PC9 cell line; assay type: cell-based, human
[14] = system: phosphorylation of EGFR and downstream signal transductions in T790M/L858R mutant expressing Ba/F3 cells; assay: Western blotting of EGFR phosphorylation and downstream signal; assay type: cell-based, mouse; conditions: FIG. 4B
[15] = system: phosphorylation of EGFR and downstream signal transductions in L858R mutant expressing Ba/F3 cells; assay: as above; assay type: cell-based, mouse; conditions: FIG. 4A
[16] = system: Ba/F3 cells expressing the T790M/del19 mutant; assay: SCID mice transplanted with EGFR mutant expressing Ba/F3; conditions: 50 mg/kg osimertinib, 75 mg/kg brigatinib, oral once daily; FIG. 12B
[17] = system: EGFR T790M/exon19 deletion mutant expressing PC9 cells; assay: Balb-c nu/nu mice transplanted with EGFR mutant expressing PC9; assay type: in vivo, mouse
Description: The tumor volume was measured in the same manner as above.
The results are shown from 2 mice per group.

[18] = system: A431 wherein EGFR is amplified; assay: Cell growth of wild type EGFR expressing cells; assay type: cell-based, human; conditions: FIG. 11
Description: The analysis was carried out using A431 wherein EGFR is amplified and A549 and H460 which have a mutation at K-ras. A431 is a cell line derived from a human epithelioid cell cancer and A549 and H460 are cell lines derived from human lung cancers. Note that, EGFR has no mutations despite A431 being amplified, and EGFR also has no mutations in A549 and H460.

adenocarcinoma = conditions: cited from earlier work
[19] = read-out: IC50 (nM) T/D, Table 4, ALK inhibitors, T790M/del19
[20] = read-out: IC50 (nM) Del19, Table 4, ALK inhibitors

EGFR T790M/L858R mutant expressing Ba/F3 cells, sequence (P00533 whole entry T790M/L858R): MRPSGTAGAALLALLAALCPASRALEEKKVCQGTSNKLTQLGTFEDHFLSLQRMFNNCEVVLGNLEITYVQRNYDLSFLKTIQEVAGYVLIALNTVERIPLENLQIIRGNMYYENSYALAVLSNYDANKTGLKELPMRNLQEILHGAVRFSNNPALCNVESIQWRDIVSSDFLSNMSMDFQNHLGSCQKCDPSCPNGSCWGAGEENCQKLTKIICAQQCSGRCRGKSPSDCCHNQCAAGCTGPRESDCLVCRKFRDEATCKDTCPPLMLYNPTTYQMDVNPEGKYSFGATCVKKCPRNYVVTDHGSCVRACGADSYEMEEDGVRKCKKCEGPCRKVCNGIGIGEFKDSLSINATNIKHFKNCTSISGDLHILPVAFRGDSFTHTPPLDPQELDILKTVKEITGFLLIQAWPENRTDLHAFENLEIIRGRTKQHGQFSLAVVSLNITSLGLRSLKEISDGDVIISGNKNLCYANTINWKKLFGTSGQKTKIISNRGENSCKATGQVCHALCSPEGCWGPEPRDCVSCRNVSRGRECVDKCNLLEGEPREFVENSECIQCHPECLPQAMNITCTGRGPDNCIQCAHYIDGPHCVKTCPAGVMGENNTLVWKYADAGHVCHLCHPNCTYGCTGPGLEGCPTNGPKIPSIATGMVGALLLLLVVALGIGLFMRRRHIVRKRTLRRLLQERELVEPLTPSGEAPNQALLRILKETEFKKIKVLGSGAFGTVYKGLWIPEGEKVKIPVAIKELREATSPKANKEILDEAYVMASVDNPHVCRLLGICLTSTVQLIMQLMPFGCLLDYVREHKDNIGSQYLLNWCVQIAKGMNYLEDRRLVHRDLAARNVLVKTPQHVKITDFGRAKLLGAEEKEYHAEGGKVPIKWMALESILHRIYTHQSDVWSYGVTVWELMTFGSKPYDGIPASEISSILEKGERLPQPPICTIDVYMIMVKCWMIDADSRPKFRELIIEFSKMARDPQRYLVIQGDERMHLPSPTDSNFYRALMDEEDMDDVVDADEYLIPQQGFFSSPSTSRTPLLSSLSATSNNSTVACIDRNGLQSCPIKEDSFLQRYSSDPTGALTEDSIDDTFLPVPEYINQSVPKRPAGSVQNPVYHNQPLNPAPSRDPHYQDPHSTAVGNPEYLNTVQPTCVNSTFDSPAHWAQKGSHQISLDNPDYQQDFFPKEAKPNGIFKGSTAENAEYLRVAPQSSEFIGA
EGFR T790M/exon 19 deletion mutant (T790M/del19) expressing Ba/F3 cells, sequence (P00533 with tags, fused parts or gaps DEL746-750/T790M): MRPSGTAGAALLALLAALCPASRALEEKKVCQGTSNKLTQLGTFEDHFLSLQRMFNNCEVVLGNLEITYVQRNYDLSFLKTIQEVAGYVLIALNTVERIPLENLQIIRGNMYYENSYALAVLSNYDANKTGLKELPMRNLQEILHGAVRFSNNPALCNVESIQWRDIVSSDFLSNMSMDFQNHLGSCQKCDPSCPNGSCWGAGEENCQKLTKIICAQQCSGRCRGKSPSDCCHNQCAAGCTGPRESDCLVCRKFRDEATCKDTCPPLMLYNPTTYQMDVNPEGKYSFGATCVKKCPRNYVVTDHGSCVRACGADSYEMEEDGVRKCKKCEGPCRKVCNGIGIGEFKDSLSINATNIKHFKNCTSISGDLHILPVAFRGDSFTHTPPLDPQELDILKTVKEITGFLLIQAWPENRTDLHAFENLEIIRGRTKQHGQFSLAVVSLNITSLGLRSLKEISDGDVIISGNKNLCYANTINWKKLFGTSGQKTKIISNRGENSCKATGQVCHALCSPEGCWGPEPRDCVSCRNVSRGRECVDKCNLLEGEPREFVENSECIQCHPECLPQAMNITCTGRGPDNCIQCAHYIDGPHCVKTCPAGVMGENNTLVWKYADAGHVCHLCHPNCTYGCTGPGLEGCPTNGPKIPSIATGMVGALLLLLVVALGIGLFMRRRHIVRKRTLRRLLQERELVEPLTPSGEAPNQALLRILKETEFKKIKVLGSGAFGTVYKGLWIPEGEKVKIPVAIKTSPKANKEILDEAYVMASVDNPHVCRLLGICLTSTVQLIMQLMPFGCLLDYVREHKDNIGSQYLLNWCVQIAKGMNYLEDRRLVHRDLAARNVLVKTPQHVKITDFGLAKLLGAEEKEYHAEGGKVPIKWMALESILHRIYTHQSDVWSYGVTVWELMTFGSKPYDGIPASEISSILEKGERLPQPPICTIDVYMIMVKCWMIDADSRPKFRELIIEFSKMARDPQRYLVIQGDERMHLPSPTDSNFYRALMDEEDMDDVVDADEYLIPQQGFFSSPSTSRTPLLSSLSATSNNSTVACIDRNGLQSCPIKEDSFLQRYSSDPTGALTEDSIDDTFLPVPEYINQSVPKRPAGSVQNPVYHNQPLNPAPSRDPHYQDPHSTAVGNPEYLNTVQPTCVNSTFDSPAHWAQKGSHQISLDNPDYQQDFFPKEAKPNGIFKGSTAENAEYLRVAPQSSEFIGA
EGFR L858R mutant expressing Ba/F3 cells, sequence (P00533 whole entry L858R): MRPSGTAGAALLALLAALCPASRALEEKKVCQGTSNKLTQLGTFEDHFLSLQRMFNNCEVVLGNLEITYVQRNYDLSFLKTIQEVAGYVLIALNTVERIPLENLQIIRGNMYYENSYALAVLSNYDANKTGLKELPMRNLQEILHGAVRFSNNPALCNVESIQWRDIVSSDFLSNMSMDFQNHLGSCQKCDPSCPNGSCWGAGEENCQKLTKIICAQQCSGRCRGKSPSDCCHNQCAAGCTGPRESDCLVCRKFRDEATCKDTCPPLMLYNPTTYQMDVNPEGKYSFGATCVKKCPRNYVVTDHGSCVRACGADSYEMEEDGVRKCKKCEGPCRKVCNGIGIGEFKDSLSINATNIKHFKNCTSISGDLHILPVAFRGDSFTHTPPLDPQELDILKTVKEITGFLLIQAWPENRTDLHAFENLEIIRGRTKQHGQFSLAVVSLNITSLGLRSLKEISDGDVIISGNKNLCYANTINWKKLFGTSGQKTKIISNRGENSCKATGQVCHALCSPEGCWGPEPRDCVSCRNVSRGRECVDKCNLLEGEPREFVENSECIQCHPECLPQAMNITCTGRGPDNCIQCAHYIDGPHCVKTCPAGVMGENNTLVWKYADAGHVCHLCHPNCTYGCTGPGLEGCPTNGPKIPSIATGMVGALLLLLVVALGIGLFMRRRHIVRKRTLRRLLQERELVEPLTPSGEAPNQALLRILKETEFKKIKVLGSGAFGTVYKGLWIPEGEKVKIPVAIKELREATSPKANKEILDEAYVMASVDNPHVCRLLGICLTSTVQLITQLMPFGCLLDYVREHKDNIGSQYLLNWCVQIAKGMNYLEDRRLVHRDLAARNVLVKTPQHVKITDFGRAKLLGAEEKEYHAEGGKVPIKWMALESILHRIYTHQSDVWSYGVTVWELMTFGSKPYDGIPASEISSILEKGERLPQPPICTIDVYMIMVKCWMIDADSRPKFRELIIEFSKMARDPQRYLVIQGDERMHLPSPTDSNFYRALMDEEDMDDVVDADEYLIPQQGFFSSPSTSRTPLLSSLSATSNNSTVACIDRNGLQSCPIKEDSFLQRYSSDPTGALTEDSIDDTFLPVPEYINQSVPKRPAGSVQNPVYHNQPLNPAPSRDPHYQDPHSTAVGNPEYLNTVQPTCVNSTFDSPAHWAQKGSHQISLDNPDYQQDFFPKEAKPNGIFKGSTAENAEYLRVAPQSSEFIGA
EGFR exon 19 deletion mutant (del19) expressing Ba/F3 cells, sequence (P00533 with tags, fused parts or gaps DEL746-750): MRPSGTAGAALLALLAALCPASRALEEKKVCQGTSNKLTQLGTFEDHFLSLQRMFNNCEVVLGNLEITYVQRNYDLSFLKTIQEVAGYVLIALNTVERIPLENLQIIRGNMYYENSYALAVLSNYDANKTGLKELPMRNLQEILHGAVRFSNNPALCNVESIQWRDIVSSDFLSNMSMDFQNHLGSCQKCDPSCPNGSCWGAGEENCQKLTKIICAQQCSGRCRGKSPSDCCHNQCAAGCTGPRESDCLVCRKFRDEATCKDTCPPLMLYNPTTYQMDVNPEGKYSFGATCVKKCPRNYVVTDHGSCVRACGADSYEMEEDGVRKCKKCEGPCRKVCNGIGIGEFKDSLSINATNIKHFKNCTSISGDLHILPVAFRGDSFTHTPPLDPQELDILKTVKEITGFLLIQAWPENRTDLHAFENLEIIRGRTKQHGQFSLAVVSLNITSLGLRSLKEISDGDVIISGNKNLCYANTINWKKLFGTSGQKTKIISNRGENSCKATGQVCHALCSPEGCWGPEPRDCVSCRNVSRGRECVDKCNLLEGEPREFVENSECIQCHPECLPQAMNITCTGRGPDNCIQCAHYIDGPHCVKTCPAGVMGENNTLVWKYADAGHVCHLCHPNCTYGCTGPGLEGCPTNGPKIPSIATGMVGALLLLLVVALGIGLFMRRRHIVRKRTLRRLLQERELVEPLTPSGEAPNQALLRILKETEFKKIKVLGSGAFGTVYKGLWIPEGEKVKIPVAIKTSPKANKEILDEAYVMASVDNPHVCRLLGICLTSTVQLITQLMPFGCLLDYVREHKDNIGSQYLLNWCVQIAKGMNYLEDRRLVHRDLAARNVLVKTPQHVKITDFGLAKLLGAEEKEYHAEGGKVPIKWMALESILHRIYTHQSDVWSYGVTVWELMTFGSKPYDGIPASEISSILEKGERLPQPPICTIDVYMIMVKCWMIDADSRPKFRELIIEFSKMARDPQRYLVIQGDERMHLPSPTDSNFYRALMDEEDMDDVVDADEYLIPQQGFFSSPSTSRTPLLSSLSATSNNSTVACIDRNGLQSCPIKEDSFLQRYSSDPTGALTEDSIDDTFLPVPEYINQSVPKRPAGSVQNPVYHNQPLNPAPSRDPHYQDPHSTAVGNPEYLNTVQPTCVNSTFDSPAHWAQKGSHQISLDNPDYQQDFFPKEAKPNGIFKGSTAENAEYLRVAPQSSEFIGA

| Structure (SMILES) | GI50 [1, 19] | inhibitory activity against the EGFR signal transductions (in words) [2] | GI50 ([3]; Table 5, ALK inhibitors) | cell growth suppression effect on Ba/F3 with EGFR mutant having any of the mutations (in words) [4] | GI50 [5, 20] | GI50 [6] | suppression of phosphorylation of EGFR and downstream signal (in words) [8] | suppression of phosphorylation of EGFR and downstream signal (in words) [9] | suppression of phosphorylation of EGFR and downstream signal (in words) [10] | other results |
| --- | --- | --- | --- | --- | --- | --- | --- | --- | --- | --- |
| COc1cc(N2CCC(N3CCN(C)CC3)CC2)ccc1Nc1ncnc(Nc2ccccc2S(=O)(=O)C(C)C)n1 [ASP3026] | 2170 nM | did not substantially demonstrate the inhibitory effect on the EGFR signal transductions even when treated at a high concentration of 1 μM | 948 nM | did not substantially demonstrate the cell growth suppression effect | 450 nM | 1690 nM | – | – | – | – |
| COc1cc(N2CCC(N3CCN(C)CC3)CC2)ccc1Nc1ncc(Cl)c(Nc2ccccc2S(=O)(=O)C(C)C)n1 [TAE684] | – | did not substantially demonstrate the inhibitory effect on the EGFR signal transductions even when treated at a high concentration of 1 μM | – | did not substantially demonstrate the cell growth suppression effect | – | – | – | – | – | – |
| COc1cc(N2CCC(N3CCN(C)CC3)CC2)ccc1Nc1ncc(Cl)c(Nc2ccccc2P(C)(C)=O)n1 [brigatinib] | – | – | – | – | – | – | – | – | – | GI50 ([1]; read-out: IC50 (nM) T790M/del19, egfr t790m/exon 19 deletion mutant (t790m/del19) expressing ba/f3 cells): 150 nM; GI50 ([1]; read-out: IC50 (nM) T/D, egfr t790m/exon 19 deletion mutant (t790m/del19) expressing ba/f3 cells): 150 nM; GI50 ([3]; egfr l858r mutant expressing ba/f3 cells): 207 nM and 133 nM; GI50 ([5]; read-out: IC50 (nM) Del19, egfr exon 19 deletion mutant (del19) expressing ba/f3 cells): 43.7 nM; GI50 ([5]; read-out: IC50 (nM) del19, egfr exon 19 deletion mutant (del19) expressing ba/f3 cells): 43.7 nM |
| O=C(Nc1nccs1)C(c1cc(F)ccc1O)N1Cc2ccccc2C1=O (centres unmarked) [EAI045] | – | – | – | – | – | – | – | – | – | effectiveness on the exon 19 deletion mutation (in words) [7]: not effective on the exon 19 deletion mutation |
| COc1cc(N2CCC(N(C)C)CC2)ccc1Nc1ncc(Cl)c(Nc2ccccc2P(C)(C)=O)n1 [AP26113-analogue, AP26113-analog] | 139 nM | demonstrated the inhibitory activity against the EGFR signal transductions | 92.1 nM | strong cell growth suppression effects | 36.9 nM | 36 nM | equal suppression effect to brigatinib | demonstrated the suppression effects on the phosphorylation of EGFR | the effect was weaker compared to afatinib | – |
| C=CC(=O)Nc1cc(Nc2nccc(-c3cn(C)c4ccccc34)n2)c(OC)cc1N(C)CCN(C)C [osimertinib] | – | – | – | – | – | – | demonstrated the effects of suppressing the phosphorylation | neither of afatinib, osimertinib, or gefitinib demonstrated the suppression effect | also very strongly suppressed the phosphorylation | suppression of phosphorylation of EGFR and downstream signal (in words) [11]: strongly suppressed the phosphorylation of EGFR; cell growth suppression effect (in words) [12]: demonstrated the cell growth suppression effects; cell growth suppression effect (in words) [13]: extremely strong cell growth suppression effect; suppression of phosphorylation of EGFR and downstream signal (in words) [14]: strongest suppression effect; suppression of phosphorylation of EGFR and downstream signal (in words) [15]: suppression effect, despite being weaker than afatinib; tumor growth suppression effect (tumor volume, in words) [16]: had the effect; effect on the tumor growth (tumor volume, in words) ([17]; 50 mg/kg osimertinib, 75 mg/kg brigatinib, oral once daily, FIG. 13A): notable effect on the tumor growth; survival (Kaplan-Meier, in words) ([17]; FIG. 13B): alive during the observation period; cell growth suppression (in words) [18]: suppress the cell growth |
| COc1cc2ncnc(Nc3ccc(F)c(Cl)c3)c2cc1OCCCN1CCOCC1 [gefitinib] | – | – | – | – | – | – | – | – | – | PFS (progression-free survival) (adenocarcinoma; EGFR gene mutation-positive group): 9.5 months; PFS (progression-free survival) (adenocarcinoma; mutation negative group): 1.5 months |
| COc1cc(N2CCC(N)CC2)ccc1Nc1ncc(Cl)c(-c2c[nH]c3ccccc23)n1 [AZD3463] | 175 nM | – | 287 nM | strong cell growth suppression effects | 90 nM | 184 nM | confirmed to have the effect of suppressing the phosphorylation of EGFR | had the effect of suppressing the phosphorylation of the EGFR signal transductions | confirmed to have the effect of suppressing the phosphorylation of EGFR | – |
| Cc1cc(Nc2ncc(Cl)c(Nc3ccccc3S(=O)(=O)C(C)C)n2)c(OC(C)C)cc1C1CCNCC1 [ceritinib] | – | did not substantially demonstrate the inhibitory effect on the EGFR signal transductions even when treated at a high concentration of 1 μM | 1160 nM | did not substantially demonstrate the cell growth suppression effect | 524 nM | 685 nM | – | – | – | – |
